Measurements from ChEMBL document CHEMBL1201861, “Genomics of Drug Sensitity in Cancer screening data, Wellcome Trust Sanger Institute”.

Assays:
Assay in all cases: cells
Conditions in all cases: Homo sapiens
NCI-H630 = format: functional, cell-based;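 also: growth inhibition of NCI-H630 cells, read out with a cell viability assay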
Description: SANGER: Inhibition of human NCI-H630 cell growth in a cell viability assay.

23132-87 = format: functional, cell-based
Description: SANGER: Inhibition of human 23132-87 cell growth in a cell viability assay.

BHT-101 = format: functional, cell-based
Description: SANGER: Inhibition of human BHT-101 cell growth in a cell viability assay.

SBC-5 = format: functional, cell-based;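 also: cell viability assay read-out, IC50 is the concentration that inhibits growth of the cells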
Description: SANGER: Inhibition of human SBC-5 cell growth in a cell viability assay.

HCC38 = format: functional, cell-based;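 also: cell viability assay on the human HCC38 cell line, with IC50 marking the concentration that inhibits cell growth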
Description: SANGER: Inhibition of human HCC38 cell growth in a cell viability assay.

CAPAN-1 = format: functional, cell-based;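 also: growth suppression of CAPAN-1 cells, read out by a cell viability assay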
Description: SANGER: Inhibition of human CAPAN-1 cell growth in a cell viability assay.

A2058 = format: functional, cell-based;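 also: reduction of A2058 cell growth, read out with a viability assay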
Description: SANGER: Inhibition of human A2058 cell growth in a cell viability assay.

BEN = format: functional, cell-based;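 also: growth inhibition of the BEN cell line, read out with a cell viability assay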
Description: SANGER: Inhibition of human BEN cell growth in a cell viability assay.

KYSE-180 = format: functional, cell-based;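 also: growth inhibition of KYSE-180 cells, read out with a cell viability assay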
Description: SANGER: Inhibition of human KYSE-180 cell growth in a cell viability assay.

GP5d = format: functional, cell-based;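 also: growth inhibition of human GP5d cells, read out with a cell viability assay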
Description: SANGER: Inhibition of human GP5d cell growth in a cell viability assay.

MKN-28 = format: functional, cell-based;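 also: cell viability assay read-out, IC50 reflects suppression of growth of human MKN-28 cells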
Description: SANGER: Inhibition of human MKN28 cell growth in a cell viability assay.

639-V = format: functional, cell-based;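 also: growth inhibition of 639-V cells, read out with a cell viability assay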
Description: SANGER: Inhibition of human 639-V cell growth in a cell viability assay.

BT-20 = format: functional, cell-based;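 also: cell viability assay measuring suppression of growth in human BT-20 cells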
Description: SANGER: Inhibition of human BT-20 cell growth in a cell viability assay.

RD = format: functional, cell-based
Description: SANGER: Inhibition of human RD cell growth in a cell viability assay.

C32 = format: functional, cell-based;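 also: cell viability assay, with IC50 reflecting inhibition of C32 cell growth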
Description: SANGER: Inhibition of human C32 cell growth in a cell viability assay.

MCF7 = format: functional, cell-based;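 also: growth inhibition of human MCF7 cells, read out with a cell viability assay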
Description: SANGER: Inhibition of human MCF7 cell growth in a cell viability assay.

D-336MG = format: functional, cell-based
Description: SANGER: Inhibition of human D-336MG cell growth in a cell viability assay.

SW1463 = format: functional, cell-based;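 also: growth inhibition of SW1463 cells, determined with a cell viability assay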
Description: SANGER: Inhibition of human SW1463 cell growth in a cell viability assay.

NCI-H1993 = format: functional, cell-based;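 also: growth inhibition of the cancer cell line, assessed with a cell viability assay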
Description: SANGER: Inhibition of human NCI-H1993 cell growth in a cell viability assay.

SK-HEP1 = format: functional, cell-based, SK-HEP-1;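 also: cell viability readout used to quantify reduction in proliferation of human SK-HEP-1 cells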
Description: SANGER: Inhibition of human SK-HEP-1 cell growth in a cell viability assay.

JEG-3 = format: functional, cell-based;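 also: growth inhibition of human JEG-3 cells, read out with a cell viability assay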
Description: SANGER: Inhibition of human JEG-3 cell growth in a cell viability assay.

YAPC = format: functional, cell-based;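 also: growth inhibition of YAPC cells, measured with a cell viability assay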
Description: SANGER: Inhibition of human YAPC cell growth in a cell viability assay.

SW-620 = format: functional, cell-based;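 also: growth inhibition of human SW-620 cells, measured by a cell viability assay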
Description: SANGER: Inhibition of human SW620 cell growth in a cell viability assay.

M14 = format: functional, cell-based;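 also: growth inhibition of M14 cells, read out with a cell viability assay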
Description: SANGER: Inhibition of human M14 cell growth in a cell viability assay.

MEL-JUSO = format: functional, cell-based;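 also: growth inhibition of human MEL-JUSO cells, read out with a cell viability assay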
Description: SANGER: Inhibition of human MEL-JUSO cell growth in a cell viability assay.

HO-1-N-1 = format: functional, cell-based;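 also: growth inhibition of human HO-1-N-1 cells, read out with a cell viability assay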
Description: SANGER: Inhibition of human HO-1-N-1 cell growth in a cell viability assay.

D-247MG = format: functional, cell-based
Description: SANGER: Inhibition of human D-247MG cell growth in a cell viability assay.

MC-IXC = format: functional, cell-based;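 also: growth inhibition of MC-IXC cells, read out with a cell viability assay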
Description: SANGER: Inhibition of human MC-IXC cell growth in a cell viability assay.

SNU-423 = format: functional, cell-based
Description: SANGER: Inhibition of human SNU-423 cell growth in a cell viability assay.

LCLC-97TM1 = format: functional, cell-based;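 also: cell viability assay measuring growth inhibition of human LCLC-97TM1 cells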
Description: SANGER: Inhibition of human LCLC-97TM1 cell growth in a cell viability assay.

SW1710 = format: functional, cell-based;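 also: growth inhibition of SW1710 cells, determined with a cell viability assay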
Description: SANGER: Inhibition of human SW1710 cell growth in a cell viability assay.

647-V = format: functional, cell-based;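 also: growth inhibition of 647-V cells, read out with a cell viability assay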
Description: SANGER: Inhibition of human 647-V cell growth in a cell viability assay.

SK-LU-1 = format: functional, cell-based;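 also: cell viability assay measuring growth inhibition of human SK-LU-1 cells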
Description: SANGER: Inhibition of human SK-LU-1 cell growth in a cell viability assay.

SAOS-2 = format: functional, cell-based;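 also: growth inhibition of human Saos-2 cells determined by a cell viability assay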
Description: SANGER: Inhibition of human Saos-2 cell growth in a cell viability assay.

SK-MEL-24 = format: functional, cell-based;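 also: growth inhibition read out by a cell viability assay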
Description: SANGER: Inhibition of human SK-MEL-24 cell growth in a cell viability assay.

KYSE-510 = format: functional, cell-based;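 also: cell viability readout used to measure how strongly growth of the cell line is suppressed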
Description: SANGER: Inhibition of human KYSE-510 cell growth in a cell viability assay.

Ca9-22 = format: functional, cell-based;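 also: growth inhibition of Ca9-22 cells, read out with a cell viability assay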
Description: SANGER: Inhibition of human Ca9-22 cell growth in a cell viability assay.

SiHa = format: functional, cell-based;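 also: Viability-based readout of growth inhibition in SiHa cells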
Description: SANGER: Inhibition of human SiHa cell growth in a cell viability assay.

SNU-387 = format: functional, cell-based
Description: SANGER: Inhibition of human SNU-387 cell growth in a cell viability assay.

S-117 = format: functional, cell-based
Description: SANGER: Inhibition of human S-117 cell growth in a cell viability assay.

OVCAR-8 = format: functional, cell-based;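 also: growth inhibition of human OVCAR-8 cells, read out by a cell viability assay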
Description: SANGER: Inhibition of human OVCAR-8 cell growth in a cell viability assay.

NCI-H2009 = format: functional, cell-based;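 also: cell viability assay measuring inhibition of NCI-H2009 cell growth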
Description: SANGER: Inhibition of human NCI-H2009 cell growth in a cell viability assay.

SCC-4 = format: functional, cell-based;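 also: growth inhibition of human SCC-4 cells, read out as cell viability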
Description: SANGER: Inhibition of human SCC-4 cell growth in a cell viability assay.

HCC2157 = format: functional, cell-based;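 also: growth inhibition of the cancer cell line, read out as cell viability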
Description: SANGER: Inhibition of human HCC2157 cell growth in a cell viability assay.

NCI-H650 = format: functional, cell-based;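 also: growth inhibition of NCI-H650 cells, read out by a viability assay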
Description: SANGER: Inhibition of human NCI-H650 cell growth in a cell viability assay.

LN-405 = format: functional, cell-based
Description: SANGER: Inhibition of human LN-405 cell growth in a cell viability assay.

5637 = format: functional, cell-based
Description: SANGER: Inhibition of human 5637 cell growth in a cell viability assay.

Detroit 562 = format: functional, cell-based;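 also: growth inhibition of human Detroit 562 cells, read out by a cell viability assay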
Description: SANGER: Inhibition of human Detroit562 cell growth in a cell viability assay.

T98G = format: functional, cell-based;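 also: growth inhibition of T98G cells, read out by a cell viability assay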
Description: SANGER: Inhibition of human T98G cell growth in a cell viability assay.

COLO-792 = format: functional, cell-based
Description: SANGER: Inhibition of human COLO-792 cell growth in a cell viability assay.

TYK-nu = format: functional, cell-based;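 also: growth inhibition of human TYK-nu cells, read out by a cell viability assay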
Description: SANGER: Inhibition of human TYK-nu cell growth in a cell viability assay.

EFO-21 = format: functional, cell-based;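 also: growth inhibition of EFO-21 cells measured with a viability assay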
Description: SANGER: Inhibition of human EFO-21 cell growth in a cell viability assay.

ABC-1 = format: functional, cell-based;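 also: growth inhibition of human ABC-1 cells, read out by a cell viability assay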
Description: SANGER: Inhibition of human ABC-1 cell growth in a cell viability assay.

IST-SL2 = format: functional, cell-based;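 also: growth inhibition of human IST-SL2 cells, read out by a cell viability assay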
Description: SANGER: Inhibition of human IST-SL2 cell growth in a cell viability assay.

NCI-H748 = format: functional, cell-based;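 also: growth inhibition of NCI-H748 cells, measured by a cell viability assay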
Description: SANGER: Inhibition of human NCI-H748 cell growth in a cell viability assay.

P31-FUJ = format: functional, cell-based;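 also: growth inhibition of P31-FUJ cells, read out with a viability assay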
Description: SANGER: Inhibition of human P31-FUJ cell growth in a cell viability assay.

MDA-MB-134-VI = format: functional, cell-based
Description: SANGER: Inhibition of human MDA-MB-134-VI cell growth in a cell viability assay.

EB2 = format: functional, cell-based;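 also: growth inhibition of EB2 cells, read out with a cell viability assay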
Description: SANGER: Inhibition of human EB2 cell growth in a cell viability assay.

NCI-H2171 = format: functional, cell-based;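 also: growth inhibition of human NCI-H2171 cells, read out by a cell viability assay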
Description: SANGER: Inhibition of human NCI-H2171 cell growth in a cell viability assay.

NCI-H2141 = format: functional, cell-based;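 also: growth inhibition of human NCI-H2141 cells, read out with a cell viability assay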
Description: SANGER: Inhibition of human NCI-H2141 cell growth in a cell viability assay.

MOLT-13 = format: functional, cell-based;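 also: IC50 for suppression of MOLT-13 cell growth, read out with a cell viability assay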
Description: SANGER: Inhibition of human MOLT-13 cell growth in a cell viability assay.

Daudi = format: functional, cell-based
Description: SANGER: Inhibition of human Daudi cell growth in a cell viability assay.

NCI-H719 = format: functional, cell-based
Description: SANGER: Inhibition of human NCI-H719 cell growth in a cell viability assay.

MRK-nu-1 = format: functional, cell-based
Description: SANGER: Inhibition of human MRK-nu-1 cell growth in a cell viability assay.

U-698-M = format: functional, cell-based
Description: SANGER: Inhibition of human U-698-M cell growth in a cell viability assay.

`O=c1cc(N2CCOCC2)oc2c(-c3cccc4c3sc3ccccc34)cccc12` was tested. Which IC50 (NCI-H630) did it give?
Its IC50 is > 2 µM.

What about the IC50 (23132-87) of the same compound?
Its IC50 is > 2 µM.

What about the IC50 (BHT-101) of the same compound?
Its IC50 is > 2 µM.

What about the IC50 (SBC-5) of the same compound?
The IC50 was > 2 µM.

And the IC50 (HCC38)?
The IC50 was > 2 µM.

What about the IC50 (CAPAN-1) of the same compound?
The IC50 was > 2 µM.

And the IC50 (A2058)?
Its IC50 is > 2 µM.

What about the IC50 (BEN) of the same compound?
The IC50 was > 2 µM.

What about the IC50 (KYSE-180) of the same compound?
Its IC50 is > 2 µM.

What about the IC50 (GP5d) of the same compound?
The IC50 was > 2 µM.

What about the IC50 (MKN-28) of the same compound?
Its IC50 is > 2 µM.

And the IC50 (639-V)?
The IC50 was 1.44 µM.

What about the IC50 (BT-20) of the same compound?
Its IC50 is > 2 µM.

What about the IC50 (RD) of the same compound?
The IC50 was > 2 µM.

What about the IC50 (C32) of the same compound?
The IC50 was > 2 µM.

What about the IC50 (MCF7) of the same compound?
Its IC50 is > 2 µM.

What about the IC50 (D-336MG) of the same compound?
Its IC50 is > 2 µM.

And the IC50 (SW1463)?
Its IC50 is > 2 µM.

What about the IC50 (NCI-H1993) of the same compound?
The IC50 was > 2 µM.

And the IC50 (SK-HEP1)?
Its IC50 is > 2 µM.

What about the IC50 (JEG-3) of the same compound?
The IC50 was > 2 µM.

And the IC50 (YAPC)?
The IC50 was > 2 µM.

And the IC50 (SW-620)?
Its IC50 is > 2 µM.

What about the IC50 (M14) of the same compound?
Its IC50 is > 2 µM.

What about the IC50 (MEL-JUSO) of the same compound?
The IC50 was > 2 µM.

And the IC50 (HO-1-N-1)?
Its IC50 is > 2 µM.

What about the IC50 (D-247MG) of the same compound?
The IC50 was > 2 µM.

And the IC50 (MC-IXC)?
The IC50 was > 2 µM.

And the IC50 (SNU-423)?
The IC50 was > 2 µM.

And the IC50 (LCLC-97TM1)?
Its IC50 is > 2 µM.

What about the IC50 (SW1710) of the same compound?
Its IC50 is > 2 µM.

And the IC50 (647-V)?
Its IC50 is > 2 µM.

And the IC50 (SK-LU-1)?
The IC50 was > 2 µM.

And the IC50 (SAOS-2)?
The IC50 was > 2 µM.

And the IC50 (SK-MEL-24)?
Its IC50 is > 2 µM.

And the IC50 (KYSE-510)?
The IC50 was > 2 µM.

What about the IC50 (Ca9-22) of the same compound?
The IC50 was > 2 µM.

And the IC50 (SiHa)?
The IC50 was > 2 µM.

And the IC50 (SNU-387)?
Its IC50 is > 2 µM.

And the IC50 (S-117)?
Its IC50 is > 2 µM.

What about the IC50 (OVCAR-8) of the same compound?
The IC50 was > 2 µM.

And the IC50 (NCI-H2009)?
The IC50 was > 2 µM.

What about the IC50 (SCC-4) of the same compound?
The IC50 was > 2 µM.

What about the IC50 (HCC2157) of the same compound?
The IC50 was > 2 µM.

What about the IC50 (NCI-H650) of the same compound?
The IC50 was > 2 µM.

What about the IC50 (LN-405) of the same compound?
Its IC50 is > 2 µM.

And the IC50 5637?
Its IC50 is > 2 µM.

What about the IC50 (Detroit 562) of the same compound?
Its IC50 is > 2 µM.

And the IC50 (T98G)?
The IC50 was > 2 µM.

What about the IC50 (COLO-792) of the same compound?
Its IC50 is > 2 µM.

And the IC50 (TYK-nu)?
The IC50 was > 2 µM.

What about the IC50 (EFO-21) of the same compound?
Its IC50 is > 2 µM.

What about the IC50 (ABC-1) of the same compound?
Its IC50 is > 2 µM.

How did the IC50 (IST-SL2) turn out when `COc1cc(C)c(Sc2cnc(NC(=O)c3ccc(CNC(C)C(C)(C)C)cc3)s2)cc1C(=O)N1CCN(C(C)=O)CC1` (configuration not stated) was run?
The IC50 was > 10.2 µM.

And the IC50 (NCI-H748)?
The IC50 was > 10.2 µM.

What about the IC50 (P31-FUJ) of the same compound?
The IC50 was > 10.2 µM.

And the IC50 (MDA-MB-134-VI)?
Its IC50 is > 10.2 µM.

What about the IC50 (EB2) of the same compound?
The IC50 was > 10.2 µM.

What about the IC50 (D-336MG) of the same compound?
Its IC50 is 6.78 µM.

What about the IC50 (NCI-H2171) of the same compound?
Its IC50 is > 10.2 µM.

And the IC50 (NCI-H2141)?
Its IC50 is > 10.2 µM.

What about the IC50 (D-247MG) of the same compound?
The IC50 was > 10.2 µM.

What about the IC50 (MOLT-13) of the same compound?
Its IC50 is > 10.2 µM.

What about the IC50 (Daudi) of the same compound?
The IC50 was > 10.2 µM.

What about the IC50 (NCI-H719) of the same compound?
The IC50 was > 10.2 µM.

And the IC50 (HCC2157)?
The IC50 was > 10.2 µM.

And the IC50 (MRK-nu-1)?
The IC50 was 8.3 µM.

What about the IC50 (U-698-M) of the same compound?
Its IC50 is > 10.2 µM.

Which results are given for `NC(=O)c1ncn([C@@H]2O[C@H](COP(=O)(O)O)[C@@H](O)[C@H]2O)c1N`?
IC50 (NCI-H630): > 2000 µM; IC50 (23132-87): > 2000 µM; IC50 (BHT-101): > 2000 µM; IC50 (SBC-5): 1480 µM; IC50 (HCC38): > 2000 µM; IC50 (CAPAN-1): > 2000 µM; IC50 (A2058): > 2000 µM; IC50 (BEN): > 2000 µM; IC50 (KYSE-180): 453 µM; IC50 (GP5d): 1770 µM; IC50 (MKN-28): > 2000 µM; IC50 (639-V): > 2000 µM; IC50 (BT-20): 1400 µM; IC50 (RD): > 2000 µM; IC50 (MCF7): 901 µM; IC50 (SW1463): > 2000 µM; IC50 (SK-HEP1): 920 µM; IC50 (JEG-3): 1440 µM; IC50 (YAPC): > 2000 µM; IC50 (SW-620): > 2000 µM; IC50 (M14): 295 µM; IC50 (MEL-JUSO): > 2000 µM; IC50 (HO-1-N-1): 793 µM; IC50 (D-247MG): > 2000 µM; IC50 (MC-IXC): 1780 µM; IC50 (SNU-423): 1220 µM; IC50 (LCLC-97TM1): 917 µM; IC50 (SW1710): > 2000 µM; IC50 (647-V): > 2000 µM; IC50 (SK-LU-1): 1700 µM; IC50 (SAOS-2): > 2000 µM; IC50 (SK-MEL-24): > 2000 µM; IC50 (KYSE-510): 905 µM; IC50 (Ca9-22): 1260 µM; IC50 (SiHa): > 2000 µM; IC50 (SNU-387): > 2000 µM; IC50 (S-117): > 2000 µM; IC50 (OVCAR-8): > 2000 µM; IC50 (NCI-H2009): 1460 µM; IC50 (SCC-4): 1230 µM; IC50 (NCI-H650): > 2000 µM; IC50 (LN-405): > 2000 µM; IC50 5637: > 2000 µM; IC50 (Detroit 562): 1220 µM; IC50 (T98G): > 2000 µM; IC50 (COLO-792): > 2000 µM; IC50 (TYK-nu): > 2000 µM; IC50 (EFO-21): > 2000 µM; IC50 (ABC-1): > 2000 µM
